From PubChem BioAssay AID2423 (Broad Institute, 2010)
Records with an inconclusive call do not appear. Active and inactive are the calls of the source. The rule behind the calls is not given here.

Each molecule was assayed on C. albicans CaCi-8 + fluconazole, Alamar Blue growth, 48 h (assay: resistant C. albicans growth inhibition with fluconazole, dose response, CaCi-8 strain, Alamar Blue fluorescence (AID 2423)).

Going from `Oc1ccc(/C=N/n2c(COc3ccccc3)n[nH]c2=S)cc1O` to `CCOc1ccc(N=Nc2ccc(O)c3ncccc23)cc1`, the EC50 falls from 16300 nM to 1150 nM (14-fold).

Compared with `Nc1nonc1-n1nnc(C(=O)N/N=C/c2cc(Br)ccc2O)c1CSC1=NCCS1`, `O=[N+]([O-])c1ccc(O)c(Nc2ncnc3ccc(Br)cc23)c1` is 2.4-fold lower in EC50: 359 nM for the first, 150 nM for the second. The second is the more potent here.

First: c1ccc(Sc2cccc3ccccc23)c(CNC2=NCCN2)c1
Second: O=C1C=C(NCc2ccccc2)c2ccccc2C1=O
The EC50 of the first is 5.1-fold higher: 9520 nM for the first, 1860 nM for the second.

`c1csc(CNc2ncnc3sccc23)c1` and `COC(=O)c1c(-c2cccs2)csc1NC(=O)c1cccnc1` are within 1.5-fold of each other in EC50: 1760 nM for the first, 1290 nM for the second.

Going from `O=C(Oc1c(CN2CCOCC2)cc(Cl)c2cccnc12)c1ccccc1` to `Brc1ccc(-c2nnc3sc(CN4CCN(c5ccccc5)CC4)cn23)cc1`, the EC50 falls from 2650 nM to 288 nM (9.2-fold). The second is the more potent here.

Compared with `O=C(Nc1nnc(-c2ccncc2)o1)c1ccc2ccccc2c1`, `COc1ccccc1NC(c1cccnc1)c1ccc2cccnc2c1O` (stereo not drawn) is 10-fold higher in EC50: 1440 nM for the first, 14900 nM for the second. The first is the more potent here.

First: Cc1cccc(C(=O)NNC2=C(C(=O)C(F)(F)F)CCC2)c1O
Second: Cc1cccc(NCc2ccc(O)c3ncccc23)c1C
The EC50 of the first is 9.6-fold lower: 1230 nM for the first, 11800 nM for the second. The first is the more potent here.

Going from `O=c1cc(CSc2ccc(Cl)cc2)nc(-c2ccccn2)[nH]1` to `O=C(Nc1nc(-c2ccccn2)cs1)c1ccc(Br)s1`, the EC50 rises from 531 nM to 1000 nM (1.9-fold). The first is the more potent here.

First: CCCCC(=O)NC(c1ccc(Cl)cc1Cl)c1ccc2cccnc2c1O (stereo not drawn)
Second: Cc1ccc2[nH]c(=O)c(C3C(C#N)=C(N)Oc4c3ccc3cccnc43)cc2c1 (stereo not drawn)
The EC50 of the first is 2.4-fold lower: 407 nM for the first, 971 nM for the second. The first is the more potent here.

Going from `Cc1ccc(S(=O)(=O)/N=C2/NC(=O)/C(=C\c3cc(Br)cc(Br)c3O)S2)cc1` to `Cc1ccc(C(=O)c2coc3cc([N+](=O)[O-])c(O)c([N+](=O)[O-])c23)cc1`, the EC50 falls from 9680 nM to 1230 nM (7.9-fold). The second is the more potent here.

Going from `C[C@]12CC[C@H](O)C[C@@H]1CC[C@@H]1[C@@H]2CC[C@]2(C)C(=O)CC[C@@H]12` to `O=C1C2CCN(CC2)C1Cc1ccc(OCc2ccccc2)cc1` (stereo not drawn), the EC50 falls from 5650 nM to 2190 nM (2.6-fold). The second is the more potent here.

Compared with `COc1cc2c(O)c3c(c(-c4ccc5c(c4)OCO5)c2cc1OC)C(=O)OC3`, `O=C(c1ccc2c(c1)OCO2)N1CCC2(CC1)Oc1ccc(Cl)cc1C(=O)C21CC(c2cccnc2)=NO1` (stereo not drawn) is 5-fold lower in EC50: 2210 nM for the first, 438 nM for the second.

Going from `C=CCN(CC=C)Cc1c(O)ccc2c(=O)c(-c3ccccc3)coc12` to `Fc1cccc(-n2cc(-c3ccccc3)c3c(=S)nc[nH]c32)c1`, the EC50 rises from less than 120 nM to 1800 nM.

Compared with `O=C(/C=C/c1ccc([N+](=O)[O-])o1)NNC(=O)c1ccc(F)cc1`, `C/C(=N/NC(=O)c1cc(O)c(O)c(O)c1)c1ccc([N+](=O)[O-])cc1` is 4-fold higher in EC50: 1190 nM for the first, 4810 nM for the second.

Compared with `O=[N+]([O-])c1ccc(O)c(/C=N/Nc2ccc(Cl)nn2)c1`, `Cc1[nH]n(-c2cccc3ccccc23)c(=O)c1/C=N/NC(=O)c1cccc([N+](=O)[O-])c1` is 1.8-fold higher in EC50: 1800 nM for the first, 3270 nM for the second.

`Cc1nn(-c2ccccc2)c(N)c1N=Nc1ccc(Cl)cc1` and `CC(=O)Nc1ccc(Nc2c3ccccc3nc3ccccc23)cc1` are within 1.5-fold of each other in EC50: 7760 nM for the first, 5980 nM for the second.

Going from `C=CCNC(=S)N/N=C/c1ccc(-c2ccc(OC)cc2)o1` to `C=CCn1c(O)c(N=NC(=S)Nc2ccccc2C)c2cc(S(=O)(=O)N3CCOCC3)ccc21`, the EC50 falls from 4000 nM to 1190 nM (3.4-fold). The second is the more potent here.

Compared with `Cn1cc(C(c2ccccn2)c2cn(C)c3ccccc23)c2ccccc21`, `O=C(O)c1ccccc1-c1ccccc1C(=O)Nc1cccc(-c2nc3ccccc3o2)c1` is 12-fold higher in EC50: 185 nM for the first, 2240 nM for the second.

`CC(=O)c1c(C)nc(-c2cccc([N+](=O)[O-])c2)n1O` gave an EC50 of 3290 nM.

`Cc1ccc(-c2nnn(CC(=O)N(Cc3ccco3)C(C(=O)NC(C)(C)C)c3ccncc3)n2)o1` (stereo not drawn) was tested, and the EC50 was > 15000 nM (inactive).
For `O=C(c1ccccc1)C(CN1CCCC1)c1ccccc1` (stereo not drawn), the EC50 was > 16000 nM (inactive).
In the case of `COc1ccc(C(C(=O)NC2CCCCC2)N(Cc2cccs2)C(=O)Cc2c[nH]c3ccccc23)cc1` (stereo not drawn), the EC50 is reported as > 15000 nM (inactive).
In the case of `O=C(Nc1ccccc1)OCN1C(=O)c2ccccc2C1=O`, the EC50 is reported as > 15000 nM (inactive).
With `N#C/C(=N/Nc1ccc(OC(F)(F)F)cc1)C(N)=S` the EC50 was > 15000 nM (inactive).
For `CCN(CC)S(=O)(=O)c1ccc(N/N=C(\C)c2ccc(OC)cc2O)nc1`, the EC50 was > 16000 nM (inactive).
